Assay results reported in PubChem BioAssay AID330 (DTP/NCI, 2004).
“And” between values parts separate entries of the source, which are not always exact repeats. Equal entries are not always repeated. Inconclusive results and toxic doses are left out.

Tested on: P388 leukemia ip, CD2F1 mice, survival T/C
Assay: NCI In Vivo Anticancer Drug Screen. Data for tumor model P388 Leukemia (intraperitoneal) in CD2F1 (CDF1) mice
Conditions: endpoint: median survival time, higher = longer survival
Method in brief: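 Mice carrying the transplanted tumor received test compound or vehicle. Survival was recorded in each group, and the value is the treated-group measurement divided by that of the vehicle-treated control group.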

[1] = dose: 60.0 mg/kg/injection, schedule: Q01DX005 (ip), vehicle: Klucel (hydroxypropylcellulose) (HPC)
[2] = dose: 120.0 mg/kg/injection, schedule: Q01DX005 (ip), vehicle: Klucel (hydroxypropylcellulose) (HPC)
[3] = dose: 240.0 mg/kg/injection, schedule: Q01DX005 (ip), vehicle: Klucel (hydroxypropylcellulose) (HPC)
[4] = dose: 60.0 mg/kg/injection, schedule: Q01DX005 (ip), vehicle: saline with Tween-80
[5] = dose: 120.0 mg/kg/injection, schedule: Q01DX005 (ip), vehicle: saline with Tween-80
[6] = dose: 240.0 mg/kg/injection, schedule: Q01DX005 (ip), vehicle: saline with Tween-80
[7] = dose: 100.0 mg/kg/injection, schedule: Q01DX009 (ip), vehicle: saline with Tween-80
[8] = dose: 200.0 mg/kg/injection, schedule: Q01DX009 (ip), vehicle: saline with Tween-80
[9] = dose: 50.0 mg/kg/injection, schedule: Q01DX005 (ip), vehicle: saline with Tween-80
[10] = dose: 100.0 mg/kg/injection, schedule: Q01DX005 (ip), vehicle: saline with Tween-80
[11] = dose: 200.0 mg/kg/injection, schedule: Q01DX005 (ip), vehicle: saline with Tween-80

**Q.** With `C=C1C(=O)OC2C1CCC(C)=C1CCC(C)(O)C12` (centres undefined) as the molecule, how does the T/C (dose: 5.0 mg/kg/injection, schedule: Q01DX009 (ip), vehicle: saline with Tween-80) read?
**A.** 97 % of control

**Q.** What about the T/C (dose: 10.0 mg/kg/injection, schedule: Q01DX009 (ip), vehicle: saline with Tween-80) of the same molecule?
**A.** 105 % of control

**Q.** And the T/C (dose: 20.0 mg/kg/injection, schedule: Q01DX009 (ip), vehicle: saline with Tween-80)?
**A.** 107 % of control

**Q.** What about the T/C (dose: 40.0 mg/kg/injection, schedule: Q01DX009 (ip), vehicle: saline with Tween-80) of the same molecule?
**A.** 107 % of control

**Q.** `O=c1[nH]c2ccccc2c(Oc2ccccc2)c1I` was tested. Which T/C [1] did it give?
**A.** 89 % of control

**Q.** What about the T/C [2] of the same molecule?
**A.** 92 % of control

**Q.** What about the T/C [3] of the same molecule?
**A.** 101 % of control

**Q.** For `[CH3][Sn]([c]1ccccc1)[c]1ccccc1`, which T/C (dose: 50.0 mg/kg/injection, schedule: Q01DX009 (ip), vehicle: saline) is on record?
**A.** 105 % of control

**Q.** What about the T/C (dose: 100.0 mg/kg/injection, schedule: Q01DX009 (ip), vehicle: saline) of the same molecule?
**A.** 98 % of control

**Q.** What about the T/C (dose: 200.0 mg/kg/injection, schedule: Q01DX009 (ip), vehicle: saline) of the same molecule?
**A.** 113 % of control

**Q.** Which results are given for `CCOc1cc2c(cc1C/C=C/c1ccc(OC)cc1)OCO2`?
**A.** T/C [4]: 103 % of control; T/C [5]: 103 % of control; T/C [6]: 113 % of control

**Q.** For `CCC(=O)NNc1cccc(Cl)n1`, which T/C (dose: 50.0 mg/kg/injection, schedule: Q01DX001 (ip), vehicle: Klucel (hydroxypropylcellulose) (HPC)) is on record?
**A.** 98 % of control

**Q.** And the T/C (dose: 100.0 mg/kg/injection, schedule: Q01DX001 (ip), vehicle: Klucel (hydroxypropylcellulose) (HPC))?
**A.** 94 % of control

**Q.** What about the T/C (dose: 200.0 mg/kg/injection, schedule: Q01DX001 (ip), vehicle: Klucel (hydroxypropylcellulose) (HPC)) of the same molecule?
**A.** 108 % of control

**Q.** Which T/C [1] does the source give for `COc1cc2ccncc2cc1Oc1c(OC)c(OC)cc2ccncc12` here?
**A.** 100 % of control

**Q.** What about the T/C [2] of the same molecule?
**A.** 90 % of control

**Q.** What about the T/C [3] of the same molecule?
**A.** 100 % of control

**Q.** Which results are given for `COC1=CC(=O)N/C1=C(\OC)c1ccccc1`?
**A.** T/C [4]: 90 % of control; T/C [5]: 93 % of control; T/C [6]: 99 % of control

**Q.** `C[CH2][Sn]1([CH2]C)[O]C(=O)[O][Sn]([CH2]C)([CH2]C)[O]1` was tested. Which T/C (dose: 3.12 mg/kg/injection, schedule: Q01DX005 (ip), vehicle: Klucel (hydroxypropylcellulose) (HPC)) did it give?
**A.** 122 % of control

**Q.** And the T/C (dose: 6.25 mg/kg/injection, schedule: Q01DX005 (ip), vehicle: Klucel (hydroxypropylcellulose) (HPC))?
**A.** 119 % of control

**Q.** What does the source list for `CC1OC(Sc2ncc[nH]2)C(O)C(O)C1O` (centres undefined)?
**A.** T/C (dose: 60.0 mg/kg/injection, schedule: Q01DX005 (ip), vehicle: saline): 95 % of control; T/C (dose: 120.0 mg/kg/injection, schedule: Q01DX005 (ip), vehicle: saline): 94 % of control; T/C (dose: 240.0 mg/kg/injection, schedule: Q01DX005 (ip), vehicle: saline): 100 % of control

**Q.** With `CO[C@H]1Nc2c(ccc(C)c2O)C(=O)N2C=C(/C=C/C(N)=O)C[C@@H]12` as the molecule, how does the T/C (dose: 0.05 mg/kg/injection, schedule: Q04DX003 (ip), vehicle: DMSO) read?
**A.** 106 % of control

**Q.** And the T/C (dose: 0.05 mg/kg/injection, schedule: Q04DX003 (ip), vehicle: saline)?
**A.** 122 % of control

**Q.** And the T/C (dose: 0.1 mg/kg/injection, schedule: Q04DX003 (ip), vehicle: DMSO)?
**A.** 112 % of control

**Q.** And the T/C (dose: 0.13 mg/kg/injection, schedule: Q04DX003 (ip), vehicle: saline + alcohol)?
**A.** 152 % of control

**Q.** And the T/C (dose: 0.2 mg/kg/injection, schedule: Q04DX003 (ip), vehicle: DMSO)?
**A.** 118 % of control

**Q.** What about the T/C (dose: 0.2 mg/kg/injection, schedule: Q04DX003 (ip), vehicle: saline) of the same molecule?
**A.** 122 % of control

**Q.** What about the T/C (dose: 0.22 mg/kg/injection, schedule: Q04DX003 (ip), vehicle: saline + alcohol) of the same molecule?
**A.** 153 % of control and 161 % of control (2×)

**Q.** What about the T/C (dose: 0.4 mg/kg/injection, schedule: Q04DX003 (ip), vehicle: saline) of the same molecule?
**A.** 155 % of control

**Q.** What about the T/C (dose: 0.6 mg/kg/injection, schedule: Q04DX003 (ip), vehicle: saline + alcohol) of the same molecule?
**A.** 185 % of control

**Q.** What about the T/C (dose: 0.8 mg/kg/injection, schedule: Q04DX003 (ip), vehicle: saline) of the same molecule?
**A.** 110 % of control

**Q.** What about the T/C (dose: 200.0 micrograms/kg/injection, schedule: Q01DX009 (ip), vehicle: saline) of the same molecule?
**A.** 150 % of control

**Q.** And the T/C (dose: 200.0 micrograms/kg/injection, schedule: Q04DX003 (ip), vehicle: saline with Tween-80)?
**A.** 165 % of control

**Q.** `Cc1c[n+]([O-])cc(=O)[nH]1` was tested. Which T/C [7] did it give?
**A.** 100 % of control

**Q.** What about the T/C [8] of the same molecule?
**A.** 100 % of control

**Q.** What about the T/C (dose: 400.0 mg/kg/injection, schedule: Q01DX009 (ip), vehicle: saline with Tween-80) of the same molecule?
**A.** 100 % of control

**Q.** How did the T/C (dose: 50.0 mg/kg/injection, schedule: Q01DX009 (ip), vehicle: saline with Tween-80) turn out when `O=c1oc(-c2ccccc2CCl)nc2ccccc12` was run?
**A.** 106 % of control

**Q.** What about the T/C [7] of the same molecule?
**A.** 104 % of control

**Q.** And the T/C [8]?
**A.** 101 % of control

**Q.** `CCCCN(Cc1ccccc1)CC(O)CN=Cc1ccc(C=NCC(O)CN(CCCC)Cc2ccccc2)cc1` (centres undefined) was tested. Which T/C (dose: 50.0 mg/kg/injection, schedule: Q01DX005 (ip), vehicle: saline + Tween-80 + alcohol) did it give?
**A.** 102 % of control

**Q.** And the T/C (dose: 100.0 mg/kg/injection, schedule: Q01DX005 (ip), vehicle: saline + Tween-80 + alcohol)?
**A.** 107 % of control

**Q.** What about the T/C (dose: 200.0 mg/kg/injection, schedule: Q01DX005 (ip), vehicle: saline + Tween-80 + alcohol) of the same molecule?
**A.** 98 % of control

**Q.** How did the T/C (dose: 100.0 mg/kg/injection, schedule: Q01DX001 (ip), vehicle: saline with Tween-80) turn out when `COC(=O)[C@@H]1CCCN1C(=O)C(=O)N1CCC[C@H]1C(=O)OC` was run?
**A.** 108 % of control

**Q.** And the T/C (dose: 200.0 mg/kg/injection, schedule: Q01DX001 (ip), vehicle: saline with Tween-80)?
**A.** 103 % of control

**Q.** And the T/C (dose: 400.0 mg/kg/injection, schedule: Q01DX001 (ip), vehicle: saline with Tween-80)?
**A.** 103 % of control

**Q.** For `[O-][n+]1ccccc1C[P+](c1ccccc1)(c1ccccc1)c1ccccc1`, which T/C (dose: 6.25 mg/kg/injection, schedule: Q01DX009 (ip), vehicle: water) is on record?
**A.** 99 % of control

**Q.** And the T/C (dose: 12.5 mg/kg/injection, schedule: Q01DX009 (ip), vehicle: water)?
**A.** 100 % of control and 86 % of control

**Q.** And the T/C (dose: 25.0 mg/kg/injection, schedule: Q01DX009 (ip), vehicle: water)?
**A.** 95 % of control

**Q.** What about the T/C (dose: 50.0 mg/kg/injection, schedule: Q01DX009 (ip), vehicle: water) of the same molecule?
**A.** 100 % of control and 98 % of control

**Q.** Which T/C [9] does the source give for `COc1ccc2ccccc2c1CC(C)O` (centres undefined) here?
**A.** 101 % of control

**Q.** What about the T/C [10] of the same molecule?
**A.** 98 % of control

**Q.** And the T/C [11]?
**A.** 102 % of control

**Q.** For `O=C1OCC/C1=C/OS(=O)(=O)C(F)(F)F`, which T/C (dose: 18.8 mg/kg/injection, schedule: Q01DX009 (ip), vehicle: distilled water + Tween-80) is on record?
**A.** 101 % of control and 107 % of control

**Q.** What about the T/C (dose: 37.5 mg/kg/injection, schedule: Q01DX009 (ip), vehicle: distilled water + Tween-80) of the same molecule?
**A.** 110 % of control

**Q.** And the T/C (dose: 75.0 mg/kg/injection, schedule: Q01DX009 (ip), vehicle: distilled water + Tween-80)?
**A.** 118 % of control and 123 % of control

**Q.** Which T/C [9] does the source give for `O=C1C(CCl)=C(c2ccccc2)S(=O)(=O)c2ccccc21` here?
**A.** 109 % of control

**Q.** And the T/C [10]?
**A.** 114 % of control

**Q.** And the T/C [11]?
**A.** 114 % of control
